From patent US20060189576A1, “Substituted vitamin d analogues and their therapeutic uses” (priority 2003, published 2006)
Read-outs that look alike come from different tables or passages of the source.

Columns and labels:
HL-60 cells = assay: HL-60 cell differentiation (NBT reduction assay); format: cell-based; settings: for IN VITRO STUDIES HL 60: potency to differentiate HL 60 cells, percentage activity vs 1α,25(OH)2D3 (=100%)
Description: To evaluate the effect on cell differentiation HL-60 cells were seeded at 4×10^4 cells/ml in 25 cm^2 Falcon tissue chambers using RPMI 1640 medium supplemented with 20% FCS and gentamycin (50 μg/ml) in a final volume of 5 ml. Cultures were maintained at 37° C. in a humidified atmosphere of 5% CO2 in air. […] After 4 days of culture, the dishes were shaken to lose adherent cells. Cells were washed twice in RPMI, counted and assayed for differentiation markers (NBT reduction assay). Superoxide production was measured as NBT reducing activity as described previously (Ostrem V. K et al. Proc Natl Acad Sci USA 84: 2610-2614, 1987). HL-60 cells at 1×10^6/ml were mixed with an equal volume of freshly prepared solution of phorbol 12-myristate 13-acetate (200 ng/ml) and […] and incubated for 30 min at 37° C. The percentage of cells containing black formazan deposits was determined using a hemacytometer.

[1] = for Femur calcium: NMRI mice, 7 consecutive days; for IN VIVO STUDIES Osteocalcin serum: mice, daily intraperitoneal injection 7 consecutive days, percentage activity vs 1α,25(OH)2D3 (=100%); for IN VIVO STUDIES Calcium serum / IN VIVO STUDIES Calcium urine / Serum calcium in mice: ip
Description: Eight weeks old, male NMRI mice were obtained from the Proefdierencentrum of Leuven (Belgium) and fed a vitamin D-replete diet (0.2% calcium, 1% phosphate, 2000 U vitamin D/kg; Hope Farms, Woerden, The Netherlands). […] The control group was injected with vehicle (arachis oil). The average weight of each group of 6 mice was determined at the beginning and at the end of the experiment. The following parameters were evaluated: serum calcium, serum osteocalcin, femur calcium and urinary calcium. Serum and urinary calcium were measured by a microcolorimetric assay (Sigma, St. Louis, Mo.). Femurs were removed and femur calcium content was measured in HCl-dissolved bone ash (obtained by heating for 24 h in an oven at 100° C.), using the same technique as for serum and urinary calcium.

MCF-7 cells = assay: MCF-7 cell proliferation ([3H]thymidine incorporation); format: cell-based; settings: for IN VITRO STUDIES MCF-7: antiproliferative action, percentage activity vs 1α,25(OH)2D3 (=100%); for Antiproliferative activity on MCF-7 cells: percentage activity (at 50% of the dose response) vs 1α,25(OH)2D3 (=100%)
Description: To evaluate the effect of on cell proliferation, malignant MCF-7 cells were cultured in DMEM/nut. mix. […] Cultures were maintained at 37° C. in a humidified atmosphere of 5% CO2 in air. MCF-7 cells were seeded at 5×10^3 cells/well in the above described medium in 96-well microtiter plates in a final volume of 0.2 ml per well. Triplicate cultures were performed. […] Then, 1 μCi [^3H]thymidine was added to each well and cells were harvested after 4 h incubation with a Packard harvester and measured by the Packard Topcount System (Packard, Meriden, USA).

hDBP = molecular target: T1, hDBP (Homo sapiens, UniProt P02774); assay: Affinity for human DBP: competition with [3H]1α,25(OH)2D3; format: binding; settings: percentage activity (at 50% of the dose response) in comparison with 1α,25(OH)2D3 (=100%)
T1 sequence (P02774 17-474): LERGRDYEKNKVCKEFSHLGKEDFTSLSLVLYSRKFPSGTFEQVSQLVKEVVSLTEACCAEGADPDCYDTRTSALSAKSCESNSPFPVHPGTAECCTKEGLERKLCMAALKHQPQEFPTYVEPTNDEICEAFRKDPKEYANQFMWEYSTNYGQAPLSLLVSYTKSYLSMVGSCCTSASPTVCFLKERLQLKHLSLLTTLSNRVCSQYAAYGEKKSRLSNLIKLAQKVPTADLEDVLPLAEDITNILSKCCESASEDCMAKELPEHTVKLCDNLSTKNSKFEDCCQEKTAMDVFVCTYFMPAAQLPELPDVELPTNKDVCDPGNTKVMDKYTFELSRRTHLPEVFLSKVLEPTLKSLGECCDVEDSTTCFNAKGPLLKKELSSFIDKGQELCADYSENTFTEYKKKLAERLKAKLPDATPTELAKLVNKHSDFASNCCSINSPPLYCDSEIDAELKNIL
Description: Phase separation was then obtained by the addition of 0.5 ml of cold dextran-coated charcoal.

vitamin D receptor = molecular target: T2, vitamin D receptor (Sus scrofa, UniProt A3RGC1); settings: percentage activity (at 50% of the dose response) in comparison with 1α,25(OH)2D3 (=100%)
T2 sequence (A3RGC1 1-427): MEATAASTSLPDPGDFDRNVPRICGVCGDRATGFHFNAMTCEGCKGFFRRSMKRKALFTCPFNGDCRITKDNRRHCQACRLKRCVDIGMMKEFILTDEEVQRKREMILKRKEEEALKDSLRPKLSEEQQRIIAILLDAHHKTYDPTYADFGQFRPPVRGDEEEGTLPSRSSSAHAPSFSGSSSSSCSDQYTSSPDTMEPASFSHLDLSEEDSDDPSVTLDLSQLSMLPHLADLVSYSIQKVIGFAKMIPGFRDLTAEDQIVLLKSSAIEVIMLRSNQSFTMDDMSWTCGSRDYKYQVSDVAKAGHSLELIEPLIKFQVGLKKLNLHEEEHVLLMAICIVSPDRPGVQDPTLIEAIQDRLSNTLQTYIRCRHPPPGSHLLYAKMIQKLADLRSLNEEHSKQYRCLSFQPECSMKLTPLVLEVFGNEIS
Description: The incubation was performed at 4° C. for 20 h and phase separation was obtained by addition of dextran-coated charcoal.

SMILES | IN VITRO STUDIES HL 60 (HL-60 cells) | Femur calcium ([1]; 0.1 μg/kg/d intraperitoneally) | Femur calcium ([1]; 0.2 μg/kg/d intraperitoneally) | Femur calcium ([1]; 0.4 μg/kg/d intraperitoneally) | IN VIVO STUDIES Osteocalcin serum [1] | IN VIVO STUDIES Calcium serum ([1]; mouse, in vivo) | IN VIVO STUDIES Calcium urine ([1]; mouse, in vivo) | Serum calcium in mice ([1]; mouse, in vivo) | IN VITRO STUDIES MCF-7 (MCF-7 cells) | Antiproliferative activity on MCF-7 cells (MCF-7 cells) | prodifferentiating effect (in words) (HL-60 cells; HL 60 cells) | AFFINITY STUDIES DBP (hDBP) | AFFINITY STUDIES VDR (vitamin D receptor) | times less active than the parent compound to inhibit MCF-7 cell proliferation (MCF-7 cells; parent compound 1α,25(OH)2D3) | further reduction of calcemic activity by the 2β counterpart ([1]; mouse, in vivo) | antiproliferative effect (in words) (MCF-7 cells; MCF-7 cells) | prodifferentiating activity, times that of 1α,25(OH)2D3 (HL-60 cells; HL 60 cells) | antiproliferative activity, times that of 1α,25(OH)2D3 (MCF-7 cells; MCF-7 cells)
C=C1/C(=C\C=C2/CCC[C@]3(C)[C@@H]([C@H](C)CCCC(C)(C)O)CC[C@@H]23)C[C@@H](O)C[C@@H]1O [1α,25(OH)2D3, 1α,25-dihydroxyvitamin D3, reference compound] | 100% | 8.9 ± 0.50 mg | 9.23 ± 0.31 mg | 8.75 ± 0.15 mg | 100% | 100% | 100% | 100% | 100% | 100% |  |  |  |  |  |  |  | 
C[C@H](CCCC(C)(C)O)[C@H]1CC[C@@H]2/C(=C/C=C3C[C@@H](O)C[C@H](O)C3)CCC[C@@]21C [14-epi-19-nor-1α,25(OH)2D3, reference compound] | 50% |  |  |  |  | 0.3% | 0.4% |  | 30% |  | half as potent as the parent compound | 15% | 19% | 3 times |  |  |  | 
CC(CCCC(C)(C)O)C1CCC2C(=CC=C3CC(O)C(C)C(O)C3)CCCC21C (stereo not drawn) [Compound 101, 2β-methyl-19-nor-1α,25-dihydroxyvitamin D3] | 70% |  |  |  |  | 0.5% |  |  | 80% |  | less potent than 1α,25(OH)2D3 | 9% | 75% |  | 80 fold | less potent than 1α,25(OH)2D3 |  | 
CC(CCCC(C)(C)O)C1CCC2C(=CC=C3CC(O)C(C)C(O)C3)CCCC21C (stereo not drawn) [Compound 102, 2α-methyl-19-nor-1α,25-dihydroxyvitamin D3] | 1000% |  |  |  | 15% | 40% |  |  | 400% |  | very potent | 50% | 90% |  |  | very potent | 10 times | 4 times
CC(CC#CC(C)(C)O)C1CCC2C(=CC=C3CC(O)C(C)C(O)C3)CCCC21C (stereo not drawn) [Compound 103, 2β-methyl-19-nor-23-yn-1α,25-dihydroxyvitamin D3] | 100% |  |  |  | 0.8% | 0.4% | 1.6% | 0.4% | 900% | 900% |  | 1% | 20% |  |  |  |  | 
CC(CC#CC(C)(C)O)C1CCC2C(=CC=C3CC(O)C(C)C(O)C3)CCCC21C (stereo not drawn) [Compound 118, 1,14-bis-epi-2β-methyl-19-nor-23-yn-1α,25-dihydroxyvitamin-D3] | 0% |  |  |  |  | <0.25% | <0.25% |  |  |  | not active at all | 3% | 6% |  |  |  |  | 
CC(CC#CC(C)(C)O)C1CCC2C(=CC=C3CC(O)C(C)C(O)C3)CCCC21C (stereo not shown) [Compound 141] | 1500% |  |  |  |  |  |  |  | 4500% |  | very potent |  | 9% |  |  | very potent |  | 
CCC1C(O)CC(=CC=C2CCCC3(C)C2CCC3C(C)CC#CC(C)(C)O)CC1O (stereo not shown) [Compound 142] | 400% |  |  |  |  |  |  |  | 1500% |  | very potent |  | 10% |  |  | very potent |  | 
